Like-named read-outs stand apart in the source and are kept apart here.
Legend:
[1] = target: T1, human platelet PLA2 (Homo sapiens, UniProt P14555); assay: Inhibition of cell free human platelet PLA2 (hydrolysis of [3H]-AA labelled E. coli phospholipids); assay type: biochemical; conditions: for inhibition at 50 µM: pH 7.4, 37° C.
T1 construct: The PLA2 enriched supernatant fluid is removed and the amount of protein is determined by the Lowry method; from tissue; host or cells: expired human platelets from the blood bank (acid extract, not purified)
T1 sequence (P14555 21-144): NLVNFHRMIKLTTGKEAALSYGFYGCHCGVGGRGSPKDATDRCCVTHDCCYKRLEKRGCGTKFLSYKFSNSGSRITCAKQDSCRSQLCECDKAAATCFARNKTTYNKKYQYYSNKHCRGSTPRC
Experimental: The ability of the compounds in the scope of the invention to inhibit the activity of cell free human platelet PLA2 enzyme is measured in the following in vitro assay.
E. coli, cultured to exponential growth, are sedimented for 15 minutes at 10,000 g and resuspended in sterile isotonic saline (1-3 ml). 10-25 μCi uniformly labeled [^3 H]-arachidonic acid (AA) is added to a sterile flask, evaporated by N2 and resolubilized with 0.3 ml 20% fatty acid-free bovine serum albumen (BSA). 75-100 ml of nutrient broth and 1 ml E. coli are then added to each flask and incubated for 2-3 hours at 37° C. [^3 H]-AA labelled E. coli are then sedimented, suspended in saline and added to fresh nutrient broth and incubated for 1.5 hours at 37° C. to complete [^3 H]-AA incorporation into the phospholipids. After overnight refrigeration of cultures, E. coli are again sedimented, suspended in saline and autoclaved for 15 minutes at 120° C. E. coli cultures are washed twice with saline (first wash contains 1 % BSA) and resuspended in saline. Non-labelled E. coli cultures are also prepared in the same manner. Cell number is determined by measuring the optical density at […] (3×10 cell/ml=1 O.D.). The amount of radioactivity associated with cells is determined by counting a defined volume of cell suspension. The specific activity is subsequently adjusted by adding non-labelled E. coli to yield 2-4×10 cpm per 1×10^10 E. coli.
Expired human platelets from the blood bank are centrifuged for 15 minutes at 200 g to obtain a platelet rich fraction and to remove the red blood cells. Platelets are sedimented for 15 minutes at 2500 g and the plasma is removed before adding cold 0.18N H2 SO4 (4 ml/unit). Platelets are homogenized, incubated for 1 hour at 4° C., homogenized again and centrifuged for 15 minutes at 10,000 g. The PLA2 enriched supernatant fluid is removed and the amount of protein is determined by the Lowry method. The preparation is divided into various portions and stored at -20° C.
The assay measures the hydrolysis of E. coli membrane phospholipids and the release of free [^3 H]-AA from the C-2 position of phospholipids by human platelet PLA2. To ice cold 15×100 mm test tubes, the following additions are made; 2.5×10^8 E. coli (equivalent to 5 nmol phospholipid), 5 mM Ca++, 100 mM Tris buffer (pH=7.4), 100 μg platelet extract (or an amount to produce 20-30% hydrolysis), drug or vehicle. Incubation are carried out at 37° C. in a shaking water bath for 30 minutes. The reaction is terminated by the addition of 2 volumes of tetrahydrofuran (THF) and the mixture is vortexed. Hydrolyzed [^3 H]-AA is separated from unhydrolyzed phospholipid by solid phase extraction using Bond elute NH2 columns (Analytichem Intermat.). Columns are conditioned with 0.5 ml THF followed by 0.5 ml THF:H2 O (2.0:0.1 ml v/v). Samples are loaded onto columns and hydrolyzed [^3 H]-AA is eluted with 1 ml THF:glacial acetic acid (98.0:2.0 ml v/v). The elutant is transferred to vials, 10 ml Optifluor is added and the radioactivity is determined by liquid scintillation counting.
Treatments are corrected for non-enzymatic hydrolysis by subtracting the dpms in treatments containing no enzyme. Mean [^3 H]-AA dpm is determined and a percent inhibition relative to vehicle treated samples is calculated.
The percent hydrolysis is calculated by the following equation: [formula]

[2] = test system: synthesis of LTB4 by rat glycogen-elicited polymorphonuclear leukocytes (PMN); assay: Inhibition of LTB4 synthesis by rat glycogen-elicited polymorphonuclear leukocytes (PMN); assay type: cell-based, rat (female Wistar); conditions: Leukocyte, A23187-stimulated rat PMN
[3] = test system: synthesis of the arachidonic acid cyclooxygenase oxidation product TxB2; assay: Inhibition of TxB2 synthesis (cyclooxygenase product) by rat polymorphonuclear leukocytes; assay type: cell-based, rat (female Wistar); conditions: Leukocyte, A23187-stimulated rat PMN
[4] = test system: Naja mocambique mocambique PLA2; assay: Vascular cutaneous permeability induced by snake venom PLA2 in guinea pigs; assay type: in vivo, guinea pig (Hartley); conditions: for % Inhibition (PLA2-induced vascular permeability): standard drug
[5] = test system: rat carrageenan paw edema; assay: Rat carrageenan paw edema; assay type: in vivo, rat (Sprague-Dawley); conditions: 3 h; for % Inhibition of paw edema: at 50 mg/kg (peroral), 1 h prior to carrageenan
Experimental: The compounds in the scope of the invention are further tested in the rat carrageenan paw edema to determine their ability to inhibit the acute inflammatory response.
[…] male Sprague-Dawley rats, in groups of 6 animals are injected subcutaneously in the right paw with 0.1 ml of 1% carrageenan at zero time. Mercury plethysmographic readings (ml) of the paw are made at zero time and 3 hours later. Test compounds are suspended or dissolved in 0.5% methylcellulose and given perorally 1 hour prior to carrageenan administration.
The increase in paw volume (edema in ml.) produced by the carrageenan is measured. Paw edema is calculated (3 hour volume minus zero time volume), and percent inhibition of edema is determined. Unpaired Student's t-test is used to determine statistical significance.

[6] = test system: AA-induced mouse ear edema; assay: Arachidonic acid (AA)-induced murine ear edema test; assay type: in vivo, mouse (Swiss Webster); conditions: 1 mg/ear, 30 min prior to AA, measured 1 h after AA
[7] = test system: TPA-induced mouse ear edema; assay: TPA-induced murine ear edema test; assay type: in vivo, mouse (Swiss Webster); conditions: 1 mg/ear, 30 min after TPA, measured 4 h after TPA
[8] = test system: oxazolone-induced contact hypersensitivity in the mouse ear; assay: Oxazolone-induced contact hypersensitivity in the mouse ear; assay type: in vivo, mouse (Swiss Webster); conditions: dosed at 1 mg/ear
Experimental: The assay of this Example measures the ability of the compounds in the scope of the invention to inhibit oxazolone-induced contact hypersensitivity in the mouse ear.
Female, Swiss Webster mice (8 weeks old) are placed into groups of 6 and the abdominal area of each is shaved. The mice are sensitized to oxazolone (4-ethoxymethylene-2-phenyl-oxazol-5-one) by applying 100 μl of a 2% solution in 95% alcohol directly onto the shaved abdomen using an automatic pipette and rubbing the residual oxazolone into the skin with a round wooden stick. Six days after sensitization each mouse is challenged by applying 20 μl of a 2% oxazolone solution in 95% alcohol to the right ear (10 μl on each side) and 20 μl of alcohol alone to the left ear. Compounds for topical applications are prepared in acetone and administered to the right ear 30 min after challenge or 30 min prior to and 5 h after challenge; acetone (vehicle) is applied to the left ear. Compounds for oral administration are suspended in 0.5 ml of 0.5% methyl cellulose and given ten min prior to challenge. Ear thickness of both ears is measured in mm×10^-2 at 24 and 48 h after challenge using an Oditest caliper. Edema is calculated by subtracting the left ear thickness from the right ear thickness. Drug effects are determined by calculating the percentage change from control for each time period.

[9] = cell free human platelet PLA2, pH 7.4, 37° C., 30 min, read-out: IC50 (PLA2)

Row | Structure (SMILES) | inhibition at 50 µM ([1]; 30 min) [%] | IC50 [1, 9] [µM] | inhibition at 10 µM [2] [%] | inhibition at 10 µM [3] [%] | further results
1 | COC(=O)C1(C(F)CCCCOc2ccc(Cl)cc2)CO1 (single isomer, unassigned) [2 (isomer A), 2-[5-(4-Chlorophenoxy)-1-fluoropentyl]-2-oxiranecarboxylic acid methyl ester (isomer A)] | 83.8 | 13.8 |  |  | 
2 | COC(=O)C1(C(F)CCCCCOc2ccc(Cl)cc2)CO1 (single isomer, unassigned) [3 (isomer A), 2-[6-(4-Chlorophenoxy)-1-fluorohexyl]-2-oxiranecarboxylic acid methyl ester (isomer A)] | 84.6 | 19.2 |  |  | 
3 | COC(=O)C1(C(F)CCCCc2ccccc2)CO1 (single isomer, unassigned) [Example 1 (isomer A), 2-(1-Fluoro-5-phenylpentyl)-2-oxiranecarboxylic acid methyl ester (isomer A)] | 88 | 2.6 |  |  | 
4 | COC(=O)C1(C(F)CCCCCOc2ccc(Cl)cc2)CO1 (single isomer, unassigned) [Example 3, 2-[6-(4-Chlorophenoxy)-1-fluorohexyl]-2-oxiranecarboxylic acid methyl ester] |  |  | 17 | 34 | 
5 | COC(=O)C1(C(F)=CCCCOc2ccc(Cl)cc2)CO1 (centres unmarked) [6 (fluoro-vinyl compound), 2-[5-(4-Chlorophenoxy)-1-fluoro-1-pentenyl]-2-oxiranecarboxylic acid methyl ester] | 99.5 | 3 | 15 | 33 | % Inhibition, iv at 100 mg/kg (PLA2-induced vascular permeability) [4]: 32%; % Inhibition of paw edema [5]: 26%
6 | COC(=O)C1(C(F)(F)CCCCOc2ccc(Cl)cc2)CO1 (centres unmarked) [6 (gem-difluoro compound), 2-[5-(4-Chlorophenoxy)-1,1-difluoropentyl]-2-oxiranecarboxylic acid methyl ester] | 91.1 | 8.4 | 7 | 44 | 
7 | COC(=O)C1(C(F)(F)CCCCCOc2ccc(Cl)cc2)CO1 (centres unmarked) [7 (gem-difluoro compound), 2-[6-(4-Chlorophenoxy)-1,1-difluorohexyl]-2-oxiranecarboxylic acid methyl ester] | 82 | 11.3 | 58 | 43 | 
8 | CCCCC/C=C\C/C=C\C/C=C\C/C=C\CCCC(=O)O [Arachidonic Acid, reference compound] |  |  |  |  | IC50 [1]: 10.1 µM
9 | NC1=NN(c2cccc(C(F)(F)F)c2)CC1 [BW 755c] |  |  |  |  | % Inhibition (PLA2-induced vascular permeability) ([4]; 200 mg/kg p.o.): 65.3%
10 | CN(C)CCC(c1ccc(Cl)cc1)c1ccccn1 (centres unmarked) [Chlorpheniramine] |  |  |  |  | % Inhibition (PLA2-induced vascular permeability) ([4]; 2 mg/kg p.o.): 45.0%
11 | C[C@@H]1C[C@H]2[C@@H]3CCC4=CC(=O)C=C[C@]4(C)[C@@]3(F)[C@@H](O)C[C@]2(C)[C@@]1(O)C(=O)CO [Dexamethasone] |  |  |  |  | % Inhibition (PLA2-induced vascular permeability) ([4]; 10 mg/kg p.o.): 49.0%
12 | COC(=O)C1(C(=O)CCCCCOc2ccc(Cl)cc2)CO1 (centres unmarked) [Example 7A, 2-[6-(4-Chlorophenoxy)-1-oxohexyl]-2-oxiranecarboxylic acid methyl ester] | 88.4 | 7.1 | 30 | 38 | Mouse Ear Edema Assay, % Change from Control, TOPICAL, AA [6]: -59%; Mouse Ear Edema Assay, % Change from Control, TOPICAL, TPA [7]: -70%; % Inhibition of paw edema [5]: 53%
13 | COC(=O)C1(C(=O)CCCCc2ccccc2)CO1 (centres unmarked) [Example 9, 2-(5-Phenyl-1-oxopentyl)-2-oxiranecarboxylic acid methyl ester] | 81.8 | 3.2 | 7 | 1 | % Inhibition of paw edema [5]: 27%; % Inhibition (oxazolone contact hypersensitivity) [8]: 22.0%
14 | CCOC(=O)C1(CCCCCc2ccc(Cl)cc2)CO1 (centres unmarked) [Example 10, 2-[5-(4-Chlorophenyl)pentyl]-2-oxiranecarboxylic acid ethyl ester] | 97.2 | 1.6 | 23 | 4 | % Inhibition, iv at 100 mg/kg (PLA2-induced vascular permeability) [4]: 24.1%; Mouse Ear Edema Assay, % Change from Control, TOPICAL, AA [6]: -73%; Mouse Ear Edema Assay, % Change from Control, TOPICAL, TPA [7]: -45%; % Inhibition of paw edema [5]: 42%
15 | COc1ccc2c(c1)c(CC(=O)O)c(C)n2C(=O)c1ccc(Cl)cc1 [Indomethacin, reference compound] |  |  |  |  | % Inhibition (PLA2-induced vascular permeability) ([4]; 50 mg/kg p.o.): 15.0%; ED50 ([5]; Rattus norvegicus, po, read-out: Oral ED50 (95% C.L.)): 3.7 mg/kg
16 | O=C(CBr)c1ccc(Br)cc1 [para-Bromophenacyl bromide, reference compound] |  |  |  |  | IC50 [1]: 23.7 µM

Reference: patent US4788304A, “Phospholipase A2 inhibitors” (American Home Products Corporation, priority 1987, dated 1988)
